The melting point is the temperature, or range, at which the solid turns liquid. `COc1ccc(C(C)N2C(=O)c3ccccc3C2=O)cc1OC` (stereo not shown) [Example 2, 1-Phthalimido-1-(3′,4′-dimethoxyphenyl) Ethane] displayed a melting point of 124 to 125 °C.

For the compound `CCC(c1ccc(OC)cc1)N1C(=O)c2ccccc2C1=O` (stereo not shown) [Example 3, 1-Phthalimido-1-(4-methoxyphenyl)propane], the melting point lay in the range of 85 to 86 °C.

`COc1ccc(CN2C(=O)c3ccccc3C2=O)cc1OC` [Example 4, 1-Phthalimido-1-(3′,4′-dimethoxyphenyl)methane] returned a melting point of 160 to 161 °C.

In turn, `CCCC(CCC)C(c1ccc(OC)c(OC)c1)N1C(=O)c2ccccc2C1=O` (stereo not shown) [Example 7, 1-Phthalimido-1 (3′,4′-dimethoxyphenyl)-2-propylpentane] yielded a melting point of 100 to 101 °C.

Values taken from patent US7329761B2, “Substituted imides” (Celgene Corporation, priority 1994, dated 2008).
